Measured values reported in patent publication US20100098662A1, “TREATMENT OF LIVER DISEASES IN WHICH IRON PLAYS A ROLE IN PATHOGENESIS” (priority 2005, published 2010).

Assays:
[1] = test system: rare anemia patients (iron-overloaded); assay: ALT values of rare anemia patients after one year of treatment; format: in vivo, human
Procedure: (§1) Patients were iron-overloaded patients and were treated with different doses of Compound I for one year.
(§2) ALT was measured according to standard biomedical techniques, e.g. using the International Federation of Clinical Chemistry reference method as described in Brinkmann T, Dreier J, Diekmann J, Gotting C, Klauke R, Schumann G, Kleesiek K. Alanine aminotransferase cut-off values for blood donor screening using the new International Federation of Clinical Chemistry reference method at 37 degrees C. Vox Sang. 2003 85(3): 159-64.
(§3) The baseline ALT value is defined as the patient ALT value determined for the patient at the stage of enrollment in the clinical trial, i.e. the ALT baseline value is the ALT value of the patient before starting Compound I treatment.

[2] = test system: Long-Evans cinnamon (LEC) rat; assay: Spontaneous acute hepatitis in LEC rat model; format: in vivo; settings: male LEC rats, oral 14 and 28 mg/kg/day
Procedure: Long-Evans cinnamon (LEC) rat is a mutant strain displaying hereditary hepatitis and spontaneous liver cancer. Compound I has been tested for efficacy on acute hepatitis in LEC rat model.
Methods: Compound I was administered orally to male LEC rats by gavage on does of 0, 14 and 28 mg/kg/day, starting at 6-week-old and continuing till 18-week-old. Each four rats were sacrificed on 9, 12, 14, 16 and 18-week-old in Compound I—treated groups and control group.
On sacrificing, peripheral blood was collected for monitoring the biochemical markers, including the serum alanine transaminase (ALT). Liver tissue were histologically examined.

[3] = Clinical dose-escalation trial of Compound I: pharmacokinetics; format: in vivo, human
Procedure: (§4) A randomized, double-blind, placebo-controlled, dose-escalation trial of Compound I in 24 adult β-thalassemia patients in which the safety, tolerability, PK and cumulative iron balance of 12 days of Compound I are assessed (10 mg/kg (n=5), 20 mg/kg (n=6), 40 mg/kg (n=7), and placebo (n=6).

[4] = test system: thalassemia patients (iron-overloaded); assay: ALT values of thalassemia patients after one year of treatment; format: in vivo, human
Procedure: as §1, §2, §3

[5] = test system: adult β-thalassemia patients; assay: Clinical dose-escalation trial of Compound I: iron balance and efficiency of chelation; format: in vivo, human
Procedure: as §4
Efficiency of chelation is based on average daily net iron excretion, and is calculated as the ratio between […], relative to body weight. The theoretical amount of iron is obtained from the consideration that two molecules of Compound I are needed to chelate a single atom of iron. The molecular weight of Compound I being 373.4, and that of iron 55.85. The efficiency is therefore calculated as:
Efficiency=(Feexcr*2*373.4)/(DoseCompound×55.85)×100%) • DoseCompound and Feexcr are given in mg/kg body weight.

Exposure (Cmax and AUC) increase with dose ([3]; after single dose administration): slightly over-proportionally | Exposure (Cmax and AUC) increase with dose ([3]; during steady state): approximately proportional | half-life ([3]; human, blood, at steady state, read-out: mean elimination half-life t1/2): 12 to 13 h | absorption ([3]; β-thalassemia patients, 10, 20, 40 mg/kg, 12 days): rapidly absorbed
SMILES: O=C(O)c1ccc(-n2nc(-c3ccccc3O)nc2-c2ccccc2O)cc1 [Compound I, 4-[3,5-Bis-(2-hydroxyphenyl)-[1,2,4]-triazol-1-yl]benzoic acid]
Mean of ALT ([1]; 5 mg/kg/day): 67.42 Units/liter | Mean of ALT ([1]; 10 mg/kg/day): 14.22 Units/liter | Mean of ALT ([1]; 20 mg/kg/day): −3.27 Units/liter | Mean of ALT ([1]; 30 mg/kg/day): −14.19 Units/liter | Hepatic iron accumulation assessed by Prussian blue staining vs control group [2]: markedly reduced | serum ALT level vs control group ([2]; at 18-week-old): significantly lower | Mean of ALT ([4]; 5 mg/kg/day): 35.25 Units/liter | Mean of ALT ([4]; 10 mg/kg/day): 26.62 Units/liter | Mean of ALT ([4]; 20 mg/kg/day): 3.17 Units/liter | Mean of ALT ([4]; 30 mg/kg/day): −23.56 Units/liter | Negative iron balance (average daily net iron excretion) ([5]; 10 mg/kg dose): approximately 0.127 mg/kg/day | efficiency of chelation ([5]; 10 mg/kg dose group): 16% | efficiency of chelation ([5]; 20 mg/kg): 22% | Negative iron balance (average daily net iron excretion) ([5]; 20 mg/kg dose): ~0.343 mg/kg/day | efficiency of chelation ([5]; 40 mg/kg): 15% | Negative iron balance (average daily net iron excretion) ([5]; 40 mg/kg dose): ~0.564 mg/kg/day | iron excretion ([5]; iron balance studies, almost entirely in the feces): dose-dependent increase
